According to the NIST ThermoML archive (doi:10.1016/j.fluid.2011.03.008):
± gives the expanded uncertainty stated by the source.

Key:
[1] = for surface tension liquid-gas: Plate tensiometer; for mass density: 101.33 kPa, Liquid, Vibrating tube method
[2] = xn = mol fraction of the nth substance listed; details: 293.15 K; for mass density: 101 kPa, Liquid, Vibrating tube method

CCn1cc[n+](C)c1.COS(=O)(=O)[O-] [1-ethyl-3-methylimidazolium methylsulfate]
[1]
Details | mass density [kg/m3] | surface tension liquid-gas [mN/m]
283.15 K | 1273.4 ± 20 | 53.54 ± 0.27
288.15 K | 1270.1 ± 20 | 53.28 ± 0.27
293.15 K | 1267 ± 20 | 52.99 ± 0.27
298.15 K | 1262.9 ± 20 | 52.62 ± 0.26
303.15 K | 1259.4 ± 20 | 52.32 ± 0.26
308.15 K | 1255.8 ± 20 | 52.03 ± 0.26
313.15 K | 1252.9 ± 20 | 51.72 ± 0.26
318.15 K | 1249.9 ± 20 | 51.44 ± 0.26
323.15 K | 1246.9 ± 20 | 51.07 ± 0.26
328.15 K | 1243.5 ± 20 | 50.68 ± 0.25
333.15 K | 1240.3 ± 20 | 50.41 ± 0.25

CCn1cc[n+](C)c1.COS(=O)(=O)[O-] [1-ethyl-3-methylimidazolium methylsulfate] + CCCCO
[2], Ring tensiometer
Details | surface tension liquid-gas [mN/m]
x1 = 0.032 | 23.96 ± 0.02
x1 = 0.071 | 24.3 ± 0.1
x1 = 0.1 | 24.39 ± 0.02
x1 = 0.2306 | 25.51 ± 0.04
x1 = 0.3 | 26.11 ± 0.05
x1 = 0.3996 | 27.13 ± 0.06
x1 = 0.4989 | 28.16 ± 0.08
x1 = 0.5993 | 28.58 ± 0.09
x1 = 0.695 | 28.61 ± 0.1
x1 = 0.7864 | 33.18 ± 0.13
x1 = 0.9206 | 39.12 ± 0.18
x1 = 0.9628 | 43.21 ± 0.21
x1 = 1 | 52.62 ± 0.26

[2]
Details | mass density [kg/m3]
x1 = 0.032 | 837.1 ± 20
x1 = 0.071 | 868.3 ± 20
x1 = 0.1 | 890.3 ± 20
x1 = 0.2306 | 978.5 ± 20
x1 = 0.3 | 1017.9 ± 20
x1 = 0.3996 | 1066.8 ± 20
x1 = 0.4989 | 1109.3 ± 20
x1 = 0.5993 | 1147.1 ± 20
x1 = 0.695 | 1179.6 ± 20
x1 = 0.7864 | 1207.2 ± 20
x1 = 0.9206 | 1243.6 ± 20
x1 = 1 | 1262.9 ± 20

CCn1cc[n+](C)c1.COS(=O)(=O)[O-] [1-ethyl-3-methylimidazolium methylsulfate] + CCO
[2], Plate tensiometer
Details | surface tension liquid-gas [mN/m]
x1 = 0.04 | 22.75 ± 0.06
x1 = 0.0597 | 23.23 ± 0.06
x1 = 0.08 | 23.62 ± 0.06
x1 = 0.0999 | 24.08 ± 0.07
x1 = 0.2 | 26.08 ± 0.08
x1 = 0.3 | 28.59 ± 0.09
x1 = 0.4 | 30.09 ± 0.11
x1 = 0.5 | 32.19 ± 0.12
x1 = 0.5998 | 34.22 ± 0.14
x1 = 0.6993 | 38.92 ± 0.17
x1 = 0.8005 | 44.18 ± 0.2
x1 = 0.9009 | 49.23 ± 0.23
x1 = 1 | 52.62 ± 0.26

[2]
Details | mass density [kg/m3]
x1 = 0.04 | 839.3 ± 20
x1 = 0.0597 | 862.9 ± 20
x1 = 0.08 | 885.6 ± 20
x1 = 0.0999 | 906.5 ± 20
x1 = 0.2 | 995.1 ± 20
x1 = 0.3 | 1064.8 ± 20
x1 = 0.4 | 1113.2 ± 20
x1 = 0.5 | 1150.2 ± 20
x1 = 0.5998 | 1179.8 ± 20
x1 = 0.6993 | 1205.1 ± 20
x1 = 0.8005 | 1227.1 ± 20
x1 = 0.9009 | 1246.4 ± 20
x1 = 1 | 1262.9 ± 20

CCn1cc[n+](C)c1.COS(=O)(=O)[O-] [1-ethyl-3-methylimidazolium methylsulfate] + CO
[2], Plate tensiometer
Details | surface tension liquid-gas [mN/m]
x1 = 0.05 | 24.19 ± 0.06
x1 = 0.08 | 25.56 ± 0.07
x1 = 0.0995 | 26.19 ± 0.07
x1 = 0.2001 | 30.12 ± 0.09
x1 = 0.3024 | 33.16 ± 0.11
x1 = 0.4012 | 37.21 ± 0.13
x1 = 0.4971 | 40.02 ± 0.15
x1 = 0.6 | 43.02 ± 0.17
x1 = 0.7004 | 45.59 ± 0.19
x1 = 0.8003 | 48.06 ± 0.22
x1 = 0.8971 | 50.63 ± 0.24
x1 = 0.9389 | 51.59 ± 0.25
x1 = 1 | 52.62 ± 0.26

[2]
Details | mass density [kg/m3]
x1 = 0.05 | 883.8 ± 20
x1 = 0.08 | 928.9 ± 20
x1 = 0.0995 | 957.2 ± 20
x1 = 0.2001 | 1061.5 ± 20
x1 = 0.3024 | 1122.2 ± 20
x1 = 0.4012 | 1161.3 ± 20
x1 = 0.4971 | 1189.3 ± 20
x1 = 0.6 | 1212.1 ± 20
x1 = 0.7004 | 1228 ± 20
x1 = 0.8003 | 1242.3 ± 20
x1 = 0.8971 | 1252.6 ± 20
x1 = 0.9389 | 1256.7 ± 20
x1 = 1 | 1262.9 ± 20

CCCCO [butan-1-ol] + CCn1cc[n+](C)c1.COS(=O)(=O)[O-]
Details | surface tension liquid-gas [mN/m]
[2], Ring tensiometer, x2 = 0 | 23.62 ± 0.01

Details | mass density [kg/m3]
[2], x2 = 0 | 809.6 ± 20

CCO [ethanol] + CCn1cc[n+](C)c1.COS(=O)(=O)[O-]
Details | surface tension liquid-gas [mN/m]
[2], Plate tensiometer, x2 = 0 | 22 ± 1

Details | mass density [kg/m3]
[2], x2 = 0 | 785.7 ± 20

CO [methanol] + CCn1cc[n+](C)c1.COS(=O)(=O)[O-]
Details | surface tension liquid-gas [mN/m]
[2], Plate tensiometer, x2 = 0 | 21.8 ± 0.1

Details | mass density [kg/m3]
[2], x2 = 0 | 791.2 ± 20
